Patent EP1038880B1, “Androstanes and pregnanes for allosteric modulation of GABA receptor” (priority 1994, dated 1995)

Tested on: GR complex
Experiment: [35S]TBPS binding assay (inhibition of [35S]TBPS binding, cerebral cortex P2 homogenate)
Design: species or system rat
Conditions: for IMAX: maximum inhibition of [35S]TBPS binding; for IC50: 2 nM [35S]TBPS, rat cerebral cortex P2 homogenate
Method: We performed several experiments to determine the nature of the modulation of [^35S]TBPS as affected by the compounds of the invention.
These procedures were performed as follows:
Brains from male Sprague-Dawley rats were removed immediately following sacrifice and the cerebral cortices dissected over ice. […] Briefly, the cortices were gently homogenized in 0.32 M sucrose followed by centrifugation at 1000 x g for 10 minutes. The supernatant was collected and centrifuged at 9000 x g for 20 minutes. The resultant P2 pellet was suspended as a 10% (original wet weight/volume) suspension in 50 mM Na/K phosphate buffer (pH 7.4) 200 mM NaCl to form the homogenate.
One hundred microliter […] aliquots of the P2 homogenate (0.5 milligrams (mg) protein) were incubated with 2 nanomolar (nM) [^35S]TBPS (70-110 curies/millimole; New England Nuclear, Boston, MA) in the presence or absence of the naturally occurring steroids or their synthetic derivatives to be tested. The tested compounds were dissolved in dimethylsulfoxide (Baker Chem. Co., Phillipsbury, NJ) and added to the incubation mixture in 5 µL aliquots. The incubation mixture was brought to a final volume of 1 mL with buffer. Non-specific binding was defined as binding in the presence of […] TBPS. The effect and specificity of GABA (Sigma Chem. Co., St. Louis, MO) was evaluated by performing all assays in the presence of GABA plus (+)bicuculline (Sigma Chem. Co.). maintained at 25°C for 90 minutes (steady state conditions) were terminated by rapid filtration through glass fiber filters (No. 32, Schleicher and Schuell, Keene, NH). Filter-bound radioactivity was quantitated by liquid scintillation spectrophotometry.
Various compounds were screened to determine their potential as modulators of [^35S]TBPS binding in vitro. These assays were performed in accordance with the above discussed procedures. […] It is an indication of a compound's in vitro potency. Maximum inhibition is an indication of a compound's in vitro efficacy.

[1] = listed as 3α-Hydroxy-3β-(3'-hydroxyphenyl)-ethynyl-5β-pregnan-20-one

| Structure (SMILES) | IMAX [%] | IC50 [µM] | IC50 [1] [µM] | IMAX [1] [%] |
| --- | --- | --- | --- | --- |
| CC12CCC(O)(C#CCCO)CC1CCC1C2CCC2(C)C(C(=O)Cn3cncn3)CCC12 (stereo not drawn) [3α-hydroxy-3β-(4-hydroxybutyn-1-yl)-21-(1,2,4-triazol-1-yl)-5β-pregnan-20-one] | 96 |  |  |  |
| CC(=O)[C@H]1CC[C@H]2[C@@H]3CC[C@@H]4C[C@@](O)(C#Cc5ccc(C(F)(F)F)cc5)CC[C@]4(C)[C@H]3CC[C@]12C [3α-hydroxy-3β-(4'-trifluoromethylphenylethynyl)-5β-pregnan-20-one] | 87 | 0.052 |  |  |
| C[C@]12CC[C@@H]3c4ccc(O)cc4CC[C@H]3[C@@H]1CC[C@@H]2O [17β-Estradiol, reference compound] | 0 |  |  |  |
| CC(=O)[C@H]1CC[C@H]2[C@@H]3CC[C@H]4C[C@@H](O)CC[C@]4(C)[C@H]3CC[C@]12C [3β-Hydroxy-5α-pregnan-20-one, reference compound] | 33 | > 1000 |  |  |
| CC(=O)[C@H]1CC[C@H]2[C@@H]3CC[C@@H]4C[C@@](O)(C#CCO)CC[C@]4(C)[C@H]3CC[C@]12C [3β-(3'-hydroxy-1'-propynyl)-3α-hydroxy-5β-pregnan-20-one] | 93 | 0.137 |  |  |
| CC(=O)C#C[C@@]1(O)CC[C@@]2(C)[C@@H](CC[C@@H]3[C@@H]2CC[C@]2(C)[C@@H](C(C)=O)CC[C@@H]32)C1 [3α-Hydroxy-3β-[3'-oxobutynyl]-5α-pregnan-20-one] | 104 | 6.51 |  |  |
| CC(=O)[C@H]1CC[C@H]2[C@@H]3CC[C@@H]4C[C@@](O)(C#Cc5ccc(Cl)cc5)CC[C@]4(C)[C@H]3CC[C@]12C [3β-(4'-chlorophenylethynyl)-3α-hydroxy-5β-pregnan-20-one] | 89 | 0.058 |  |  |
| CC(=O)CCC#C[C@@]1(O)CC[C@@]2(C)[C@H](CC[C@@H]3[C@@H]2CC[C@]2(C)[C@@H](C(C)=O)CC[C@@H]32)C1 [3α-Hydroxy-3β-[5-oxo-1-hexynyl]-5β-pregnan-20-one] | 101 | 0.118 |  |  |
| CC(=O)[C@H]1CC[C@H]2[C@@H]3CC[C@@H]4C[C@@](O)(C#Cc5cccc(O)c5)CC[C@]4(C)[C@H]3CC[C@]12C [3β-(3'-hydroxyphenylethynyl)-3α-hydroxy-5β-pregnan-20-one] | 99 | 0.407 | 0.619 | 98 |
| CC(=O)OCCCCC#C[C@@]1(O)CC[C@@]2(C)[C@H](CC[C@@H]3[C@@H]2CC[C@]2(C)[C@@H](C(C)=O)CC[C@@H]32)C1 [3β-(6'Acetoxy-1'-hexynyl)-3α-hydroxy-5β-pregnan-20-one] | 99 | 0.306 |  |  |
| C[C@]12CC[C@@H](O)C[C@H]1CC[C@@H]1[C@@H]2CC[C@]2(C)[C@@H](C(=O)Cn3ncnn3)CC[C@@H]12 [3α-Hydroxy-21-(2'H-1,2,3,4-tetrazol-2'-yl)-5β-pregnan-20-one] | 78 | 0.046 |  |  |
| CC(=O)OCCC#CC1(O)CCC2(C)C(CCC3C2CCC2(C)C(C(C)=O)CCC32)C1 (stereo not drawn) [3β-(4'-Acetoxy-1'-butynyl)-3α-hydroxy-5β-pregnan-20-one] | 96 | 0.02 |  |  |
| CC(=O)[C@H]1CC[C@H]2[C@@H]3CCC4=CC(=O)CC[C@]4(C)[C@H]3CC[C@]12C [Progesterone, reference compound] | 100 | 5.2 |  |  |
| CC(=O)C1CCC2C3CCC4CC(O)(C#CCn5nccn5)CCC4(C)C3CCC12C (stereo not drawn) [3α-Hydroxy-3β-[3-(2'H-1,2,3-triazol-2'-yl)-1-propynyl]-5β-pregnan-20-one] | 98 | 0.066 |  |  |
| CC(=O)[C@H]1CC[C@H]2[C@@H]3CC[C@@H]4C[C@@](O)(C#Cc5ccncc5)CC[C@]4(C)[C@H]3CC[C@]12C [3α-Hydroxy-3β-(4-pyridyl)ethynyl-5β-pregnan-20-one] | 103 | 0.149 |  |  |
| CC(=O)[C@H]1CC[C@H]2[C@@H]3CC[C@@H]4C[C@@](O)(C#CCn5ccnc5)CC[C@]4(C)[C@H]3CC[C@]12C [3α-Hydroxy-3β-[3'-(N-imidazolyl)-1'-propynyl)-5β-pregnan-20-one] | 107 | 2.72 |  |  |
| Cc1nccn1CC(=O)[C@H]1CC[C@H]2[C@@H]3CC[C@@H]4C[C@H](O)CC[C@]4(C)[C@H]3CC[C@]12C [3α-hydroxy-21-[1H-(2-methyl)imidazol-1-yl)-5β-pregnan-20-one] | 95 | 0.222 |  |  |
| C[C@]12CC[C@H]3[C@@H](CC[C@@H]4C[C@@](O)(C#CCCO)CC[C@@H]43)[C@@H]1CC[C@@H]2C(=O)Cn1nccn1 [3α-hydroxy-3β-(4-hydroxybutyn-1-yl)-21-(2H-1,2,3-triazol-2-yl)-5β-19-norpregnan-20-one] | 93 | 0.056 |  |  |
| CC(=O)[C@H]1CC[C@H]2[C@@H]3CC[C@@H]4C[C@@](O)(C#CCCO)CC[C@]4(C)[C@H]3CC[C@]12C [3β-(4'-hydroxy-1'-butynyl)-3α-hydroxy-5β-pregnan-20-one] | 103 | 0.013 |  |  |
| CC(=O)[C@H]1CC[C@H]2[C@@H]3CC[C@@H]4C[C@@](O)(C#Cc5ccccc5)CC[C@]4(C)[C@H]3CC[C@]12C [3α-hydroxy-3β-phenylethynyl-5β-pregnan-20-one] | 101 | 0.098 |  |  |
| CC(=O)[C@H]1CC[C@H]2[C@@H]3CC[C@@H]4C[C@@](O)(C#CCCCCO)CC[C@]4(C)[C@H]3CC[C@]12C [3β-(6-hydroxy-1-hexynyl)-3α-hydroxy-5β-pregnan-20-one] | 99 | 0.222 |  |  |
| CC(=O)[C@H]1CC[C@H]2[C@@H]3CC[C@@H]4C[C@@](O)(C#CCCCC(N)=O)CC[C@]4(C)[C@H]3CC[C@]12C [3β-(5'-Carboxamidopentynyl)-3α-hydroxy-5β-pregnan-20-one] | 102 | 3.09 |  |  |
| C[C@@]1(O)CC[C@@]2(C)[C@@H](CC[C@@H]3[C@@H]2CC[C@]2(C)[C@@H](C(=O)Cn4cnc5ccccc54)CC[C@@H]32)C1 [21-(1' benzimidazolyl)-3α-hydroxy-3β-methyl-5α-pregnan-20-one] | 95 | 0.109 |  |  |
| CC(=O)[C@H]1CC[C@H]2[C@@H]3CC[C@@H]4C[C@@](O)(CCc5ccccc5)CC[C@]4(C)[C@H]3CC[C@]12C [3α-Hydroxy-3β-(2'-phenylethyl)-5β-pregnan-20-one] | 98 | 0.135 |  |  |
| CC(=O)C1CCC2C3CCC4CC(O)(C#CCCO)CCC4C3CCC12C (stereo not drawn) [3β-(4'-hydroxy-1'-butynyl)-3α-hydroxy-5β-19-norpregnan-20-one] | 102 | 0.022 |  |  |
| C#C[C@@]1(O)CC[C@@]2(C)[C@H](CC[C@@H]3[C@@H]2CC[C@]2(C)[C@@H](C(=O)Cn4cncn4)CC[C@@H]32)C1 [3β-ethynyl-3α-hydroxy-21-(1',2',4'-triazoyl)-5β-pregnan-20-one] | 98 | 0.127 |  |  |
